Data from ChEMBL document CHEMBL1127134, “Synthesis and antibacterial activity of (1R,5R,6R)-2-tert-butyl-6-(1-hydroxyethyl)oxapenem-3-carboxylic acid” (1993).
Converted amounts (≈) assume the structure as drawn.

What was measured:
Type in all cases: functional
Staphylococcus aureus [1] = assay: Minimum inhibitory concentration required for the antibacterial activity against Staphylococcus aureus 13N Munchen
Staphylococcus aureus [2] = assay: Minimum inhibitory concentration required for the antibacterial activity against Staphylococcus aureus 1756; conditions: Staphylococcus aureus; read-out: MIC
Staphylococcus aureus [3] = assay: Minimum inhibitory concentration required for the antibacterial activity against Staphylococcus aureus 21b Belgium
Staphylococcus aureus [4] = assay: Minimum inhibitory concentration required for the antibacterial activity against Staphylococcus aureus 25085
Staphylococcus aureus [5] = assay: Minimum inhibitory concentration required for the antibacterial activity against Staphylococcus aureus 25463
Staphylococcus aureus [6] = assay: Minimum inhibitory concentration required for the antibacterial activity against Staphylococcus aureus 25464
Staphylococcus aureus [7] = assay: Minimum inhibitory concentration required for the antibacterial activity against Staphylococcus aureus 25470
Staphylococcus aureus [8] = assay: Minimum inhibitory concentration required for the antibacterial activity against Staphylococcus aureus 25697
Staphylococcus aureus [9] = assay: Minimum inhibitory concentration required for the antibacterial activity against Staphylococcus aureus 25768
Staphylococcus aureus [10] = assay: Minimum inhibitory concentration required for the antibacterial activity against Staphylococcus aureus 41h Belgium
Staphylococcus aureus [11] = assay: Minimum inhibitory concentration required for the antibacterial activity against Staphylococcus aureus 4978 Israel
Staphylococcus aureus [12] = assay: Minimum inhibitory concentration required for the antibacterial activity against Staphylococcus aureus 77 Innsbruck
Staphylococcus aureus [13] = assay: Minimum inhibitory concentration required for the antibacterial activity against Staphylococcus aureus 79B Innsbruck
Staphylococcus aureus [14] = assay: Minimum inhibitory concentration required for the antibacterial activity against Staphylococcus aureus 86 Innsbruck
Staphylococcus aureus [15] = assay: Minimum inhibitory concentration required for the antibacterial activity against Staphylococcus aureus 90 Innsbruck
Staphylococcus aureus [16] = assay: Minimum inhibitory concentration required for the antibacterial activity against Staphylococcus aureus 17N Munchen
Staphylococcus aureus [17] = assay: Minimum inhibitory concentration required for the antibacterial activity against Staphylococcus aureus 48N Munchen
Bacteroides fragilis [18] = assay: Minimum inhibitory concentration required for the antibacterial activity against Bacillus fragilis 4891/91 Kr
Bacteroides fragilis [19] = assay: Minimum inhibitory concentration required for the antibacterial activity against Bacillus fragilis DSM 2151
Bacteroides fragilis [20] = assay: Minimum inhibitory concentration required for the antibacterial activity against Bacillus fragilis ES 25
Bacteroides fragilis [21] = assay: Minimum inhibitory concentration required for the antibacterial activity against Bacillus fragilis GA I - 0558 Japan
Bacteroides fragilis [22] = assay: Minimum inhibitory concentration required for the antibacterial activity against Bacillus fragilis Kr 1 TV
Bacteroides fragilis [23] = assay: Minimum inhibitory concentration required for the antibacterial activity against Bacillus fragilis Kr II
Bacteroides fragilis [24] = assay: Minimum inhibitory concentration required for the antibacterial activity against Bacillus fragilis L 1168 Italien
[25] = system: Prevotella melaninogenica; assay: Minimum inhibitory concentration required for the antibacterial activity against Bacillus melaninogenicus Heidelberg
[26] = system: Prevotella melaninogenica; assay: Minimum inhibitory concentration required for the antibacterial activity against Bacillus melaninogenicus Kr
[27] = system: Parabacteroides distasonis; assay: Minimum inhibitory concentration required for the antibacterial activity against Bacillus distasonis Heidelberg
[28] = system: Parabacteroides distasonis; assay: Minimum inhibitory concentration required for the antibacterial activity against Bacillus distasonis Kr
Bacteroides fragilis [29] = assay: Minimum inhibitory concentration required for the antibacterial activity against Bacillus fragilis 010848
Bacteroides fragilis [30] = assay: Minimum inhibitory concentration required for the antibacterial activity against Bacillus fragilis 06688
Bacteroides fragilis [31] = assay: Minimum inhibitory concentration required for the antibacterial activity against Bacillus fragilis 1560 I/82
Bacteroides fragilis [32] = assay: Minimum inhibitory concentration required for the antibacterial activity against Bacillus fragilis 2034/35 Kr 43
Bacteroides fragilis [33] = assay: Minimum inhibitory concentration required for the antibacterial activity against Bacillus fragilis 4661 Kr
[34] = system: Bacteroides thetaiotaomicron; assay: Minimum inhibitory concentration required for the antibacterial activity against Bacillus thetaiotaomicron 235 Munchen
[35] = system: Bacteroides thetaiotaomicron; assay: Minimum inhibitory concentration required for the antibacterial activity against Bacillus thetaiotaomicron DSM 2079
Phocaeicola vulgatus = assay: Minimum inhibitory concentration required for the antibacterial activity against Bacillus valgatus Kr III
Clostridium perfringens [36] = assay: Minimum inhibitory concentration required for the antibacterial activity against Clostridium perfringens 1024027
Clostridium perfringens [37] = assay: Minimum inhibitory concentration required for the antibacterial activity against Clostridium perfringens 24071
Clostridium perfringens [38] = assay: Minimum inhibitory concentration required for the antibacterial activity against Clostridium perfringens 24072
Clostridium perfringens [39] = assay: Minimum inhibitory concentration required for the antibacterial activity against Clostridium perfringens DSM 756
Clostridium butyricum = assay: Minimum inhibitory concentration required for the antibacterial activity against Clostridium butyricum
Thomasclavelia ramosa = assay: Minimum inhibitory concentration required for the antibacterial activity against Clostridium ramosum DSM 1402
Clostridium sporogenes = assay: Minimum inhibitory concentration required for the antibacterial activity against Clostridium sporogenes
Fusobacterium nucleatum = assay: Minimum inhibitory concentration required for the antibacterial activity against Fusobacterium nucleatum DSM 20482
[40] = system: Peptostreptococcus anaerobius; assay: Minimum inhibitory concentration required for the antibacterial activity against Peptostrept. anaer. Kr I
[41] = system: Peptostreptococcus anaerobius; assay: Minimum inhibitory concentration required for the antibacterial activity against Peptostrept. anaer. Kr II
[42] = system: Peptostreptococcus anaerobius; assay: Minimum inhibitory concentration required for the antibacterial activity against Peptostrept. anaer. 222 I/82
[43] = system: Peptostreptococcus anaerobius; assay: Minimum inhibitory concentration required for the antibacterial activity against Peptostrept. anaer. DSM 20357
[44] = system: Peptoniphilus asaccharolyticus; assay: Minimum inhibitory concentration required for the antibacterial activity against Peptococcus asacchar. DSM 20463
Anaerococcus prevotii = assay: Minimum inhibitory concentration required for the antibacterial activity against Peptococcus prevotii DSM 20548
[45] = system: Fusobacterium necrophorum; assay: Minimum inhibitory concentration required for the antibacterial activity against Sphaerophorus necrophorus Kr
Clostridium septicum = assay: Minimum inhibitory concentration required for the antibacterial activity against Clostridium septicum

SMILES: Cc1onc(-c2ccccc2)c1C(=O)N[C@@H]1C(=O)N2[C@@H]1SC(C)(C)[C@@H]2C(=O)O [OXACILLIN]
- MIC (Staphylococcus aureus [1]): > 100 µg/mL
- MIC (Staphylococcus aureus [2]): 50 µg/mL (≈ 125 µM)
- MIC (Staphylococcus aureus [3]): > 100 µg/mL
- MIC (Staphylococcus aureus [4]): 3.12 µg/mL (≈ 7.77 µM)
- MIC (Staphylococcus aureus [5]): 1.56 µg/mL (≈ 3.89 µM)
- MIC (Staphylococcus aureus [6]): > 100 µg/mL
- MIC (Staphylococcus aureus [7]): 100 µg/mL (≈ 249 µM)
- MIC (Staphylococcus aureus [8]): 1.56 µg/mL (≈ 3.89 µM)
- MIC (Staphylococcus aureus [9]): 6.25 µg/mL (≈ 15.6 µM)
- MIC (Staphylococcus aureus [10]): > 100 µg/mL
- MIC (Staphylococcus aureus [11]): ≤ 0.78 µg/mL
- MIC (Staphylococcus aureus [12]): 100 µg/mL (≈ 249 µM)
- MIC (Staphylococcus aureus [13]): 50 µg/mL (≈ 125 µM)
- MIC (Staphylococcus aureus [14]): 100 µg/mL (≈ 249 µM)
- MIC (Staphylococcus aureus [15]): > 100 µg/mL
- MIC (Staphylococcus aureus [16]): 1.56 µg/mL (≈ 3.89 µM)
- MIC (Staphylococcus aureus [17]): ≤ 0.78 µg/mL

SMILES: CO/N=C(\C(=O)N[C@@H]1C(=O)N2C(C(=O)O)=C(COC(C)=O)CS[C@H]12)c1csc(N)n1 [CEFOTAXIME]
- MIC (Bacteroides fragilis [18]): 4 µg/mL (≈ 8.78 µM)
- MIC (Bacteroides fragilis [19]): 4 µg/mL (≈ 8.78 µM)
- MIC (Bacteroides fragilis [20]): 4 µg/mL (≈ 8.78 µM)
- MIC (Bacteroides fragilis [21]): 8 µg/mL (≈ 17.6 µM)
- MIC (Bacteroides fragilis [22]): 1 µg/mL (≈ 2.2 µM)
- MIC (Bacteroides fragilis [23]): 2 µg/mL (≈ 4.39 µM)
- MIC (Bacteroides fragilis [24]): 4 µg/mL (≈ 8.78 µM)
- MIC [25]: 2 µg/mL (≈ 4.39 µM)
- MIC [26]: 2 µg/mL (≈ 4.39 µM)
- MIC [27]: 2 µg/mL (≈ 4.39 µM)
- MIC [28]: 2 µg/mL (≈ 4.39 µM)
- MIC (Bacteroides fragilis [29]): 16 µg/mL (≈ 35.1 µM)
- MIC (Bacteroides fragilis [30]): 2 µg/mL (≈ 4.39 µM)
- MIC (Bacteroides fragilis [31]): 2 µg/mL (≈ 4.39 µM)
- MIC (Bacteroides fragilis [32]): > 128 µg/mL
- MIC (Bacteroides fragilis [33]): 4 µg/mL (≈ 8.78 µM)
- MIC [34]: 128 µg/mL (≈ 281 µM)
- MIC [35]: 128 µg/mL (≈ 281 µM)
- MIC (Phocaeicola vulgatus): 2 µg/mL (≈ 4.39 µM)
- MIC (Clostridium perfringens [36]): ≤ 0.25 µg/mL
- MIC (Clostridium perfringens [37]): 2 µg/mL (≈ 4.39 µM)
- MIC (Clostridium perfringens [38]): 0.5 µg/mL (≈ 1.1 µM)
- MIC (Clostridium perfringens [39]): ≤ 0.25 µg/mL
- MIC (Clostridium butyricum): 1 µg/mL (≈ 2.2 µM)
- MIC (Thomasclavelia ramosa): 2 µg/mL (≈ 4.39 µM)
- MIC (Clostridium sporogenes): 0.5 µg/mL (≈ 1.1 µM)
- MIC (Fusobacterium nucleatum): 0.5 µg/mL (≈ 1.1 µM)
- MIC [40]: 32 µg/mL (≈ 70.3 µM)
- MIC [41]: ≤ 0.25 µg/mL
- MIC [42]: 0.5 µg/mL (≈ 1.1 µM)
- MIC [43]: 16 µg/mL (≈ 35.1 µM)
- MIC [44]: ≤ 0.25 µg/mL
- MIC (Anaerococcus prevotii): 8 µg/mL (≈ 17.6 µM)
- MIC [45]: 1 µg/mL (≈ 2.2 µM)
- MIC (Clostridium septicum): 128 µg/mL (≈ 281 µM)
